Experiments:
whole blood (WB) clot [1] = assay: Clot burst pressure (CBP) assay on conditioned whole blood; type: cell-based; settings: for CBP normalized to individual donor baseline (times as strong): recalcified 6 mM CaCl2, 37 C 30 min
Protocol: An exemplary embodiment of the present disclosure was used to obtain test data as follows. Blood from donors (n=7) was collected into 3.2% sodium citrate tubes. Blood was divided and treated to achieve the following conditions for a hypocoagulable state: 0.10, 0.15, and 0.20 USP heparin/mL blood; for a hypercoagulable state, blood was treated with a 1.0 or 2.0 g/L addition of fibrinogen. 2 mm holes were drilled into 6-well polystyrene plates and packing tape was used to cover the bottom. Blood was recalcified with CaCl2 and pipetted into the holes. The plates were incubated at 37 C for 30 minutes to allow for thrombus formation. Tape was removed after incubation. A pressure cap was designed with an inlet for fluid from a syringe pump and an outlet for outflow and was secured in the wells with a watertight seal. Outflow led to a vertical graduated measurement column where pressure was converted from cmH2O to mmHg for data analysis.
The device comprises four primary components as shown in FIG. 1: a syringe pump, a pressure cap, a 6-well plate assembly, and a water column. A Programmable Syringe Pump was programmed to pump a 100 cc syringe at 1 mL/s at a continuous rate. The syringe pump is coupled to a pressure cap assembly.
The pressure cap assembly shown in FIGS. 2 and 3 directs fluid flow directly over a clot and prevents pressure loss to the environment. The cap has two female ports allowing for an inlet connection from the syringe pump and an outlet connecting to the water column. The cap has three legs to avoid direct contact with a clot. An O-Ring (Dash 242) fits in the groove found around the pressure cap ensuring a snug fit in a standard 6-well plate. As fluid enters the pressure cap, it is directed into a compartment where a formed clot is suspended. Backflow fluid rises up a 150 cm water column created from clear PVC pipe marked at 5 cm intervals. All connections used Luer locks and barbed connections to prevent fluid loss.
A 20″×20″ HDPE board was used as the base of the device, which contained the 6-well plate assembly and water column. 4, 2″ screws were used to elevate the 6-well plate assembly to allow for easy visual inspection after trial runs. A single 5/64″ hole was drilled into the centers of each well in a 6-well plate. 220-grit sandpaper was used in a circular manner on the inner surface of the well-plate to provide a sheared surface for platelet adhesion. Clear packing tape was used to cover the holes on the bottom of the plate prior to the start of the assay.
Venipuncture whole blood (WB) was collected from donors (male and female) who were at least 18 years of age and had not taken anticoagulant medication in the past 14 days. Blood was drawn from the antecubital fossa using a 19G needle into a standard blue top 3.2% sodium citrate vacutainer tube. Tubes were placed on a rocker at room temperature prior to use in the assay, but all assay runs were initiated within 30 minutes of blood draw.
WB was conditioned to mimic hyper and hypocoagulable states. RiaSTAP a lyophilized fibrinogen concentrate, was used to generate a hypercoagulable condition. WB was conditioned with a 1.0 mg/mL or 2.0 mg/mL bolus of fibrinogen. Heparin sodium salt (Sigma-Aldrich, OH) was reconstituted and added to WB at 0.10, 0.15, 0.20 USP/mL amounts to generate a hypocoagulable state. 6 mM of CaCl2) was added to each conditioned blood group and a control group to recalcify and promote coagulation.
35 μL of conditioned or control WB was placed in the 5/64″ hole above the packing tape in each well of the 6-well plates. The entire plate was incubated at 37 C for 30 min with the plate lid on. After 30 min, the plate was removed from the incubator and the packing tape on the bottom was removed. The pressure cap was placed in a single well in a spiral manner and an air-tight seal was created with the O-Ring. One port of the pressure cap was connected to the syringe pump and the other port to the vertical water column. […]

whole blood (WB) clot [2] = assay: as above; type: cell-based
[3] = Whole Blood w/ Heparin 0.10 USP/mL
[4] = Whole Blood w/ Heparin 0.15 USP/mL
[5] = Whole Blood w/ Heparin 0.20 USP/mL

Substance: Heparin sodium salt
- Clot Integrity (whole blood (WB) clot [1]; [3]): Weakened Clot
- Difference Between All Groups in CBP (whole blood (WB) clot [1]; [3]): Yes
- Clot Integrity (whole blood (WB) clot [1]; [4]): Weakened Clot
- Difference Between All Groups in CBP (whole blood (WB) clot [1]; [4]): Yes
- Clot Integrity (whole blood (WB) clot [1]; [5]): Weakened Clot
- Difference Between All Groups in CBP (whole blood (WB) clot [1]; [5]): Yes
- Dose dependence of clot strength (CBP) (whole blood (WB) clot [1]; between the 0.10 and 0.20 USP heparin/mL group, whole blood): dose-dependent weakness
- Clot formation (whole blood (WB) clot [1]; heparin 0.20-0.10 USP/mL range in whole blood): weaker, but stable clot
- CBP normalized to individual donor baseline (times as strong) (whole blood (WB) clot [1]; whole blood + 0.10 USP heparin/mL): 0.54±0.19
- CBP normalized to individual donor baseline (times as strong) (whole blood (WB) clot [1]; whole blood + 0.15 USP heparin/mL): 0.41±0.17
- CBP normalized to individual donor baseline (times as strong) (whole blood (WB) clot [1]; whole blood + 0.20 USP heparin/mL): 0.25±0.02
- Clot Integrity (whole blood (WB) clot [2]; Whole Blood w/ Heparin 0.25 USP/mL): Porous Clot
- Clot Integrity (whole blood (WB) clot [2]; Whole Blood w/ Heparin 0.35 USP/mL, listed as heparin, sodium salt): completely inhibits clot production
- Clot Integrity (whole blood (WB) clot [2]; Whole Blood w/ Heparin 0.35 USP/mL, sodium salt): No Clot Formation
